{"source": "paper PMC6154719", "about": "(Molecules : A Journal of Synthetic Chemistry and Natural …, 2017)", "type_in_all_cases": "in vitro ADME", "key": {"AKR1A": {"biological_target": "T1, AKR1A (Rattus norvegicus, UniProt P51635)", "T1 construct": "Frozen liver (both rat and human) was thawed; from tissue; host or cells: rat liver cytosolic fraction", "T1 sequence (P51635 1-325)": "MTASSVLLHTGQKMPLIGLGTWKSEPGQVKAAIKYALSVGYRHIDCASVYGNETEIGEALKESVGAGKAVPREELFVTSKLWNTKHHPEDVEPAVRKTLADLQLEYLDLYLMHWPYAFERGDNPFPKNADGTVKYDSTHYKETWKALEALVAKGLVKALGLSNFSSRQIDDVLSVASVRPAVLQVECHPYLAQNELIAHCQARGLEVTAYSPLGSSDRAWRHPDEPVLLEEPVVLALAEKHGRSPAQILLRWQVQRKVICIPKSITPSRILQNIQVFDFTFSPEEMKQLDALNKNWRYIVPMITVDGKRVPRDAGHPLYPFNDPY", "assay": "AKR1A activity in rat liver subcellular fraction", "settings": "100 µM sesquiterpene, control 3.60 ± 0.13", "procedure": "(§1) Enzyme activities were assayed in human and rat liver cytosolic and microsomal fractions. The enzyme assays (each performed in 4–8 replicates) were repeated three times (HPLC measurement of CYP activities was repeated only twice, Table 3). Inhibition studies were carried out by incubation of specific substrates in the presence of sesquiterpenes (in the range 0–100 µM).\n(§2) The assays of all other enzymes were based on spectrophotometric detection of product formed or detection of decreasing substrate/cofactor levels using microplate reader Tecan Infinite M200 in cytosolic or microsomal fractions. Enzyme activities were determined using slight modifications of previously-published methods: carbonyl reducing enzymes (AKR1A, AKR1C, CBR1 [45], NQO1 [46]), UDP-glucuronosyltransferase (UGT [47]), sulfotransferase (SULT [48]), and cytosolic glutathione-S-transferase (GST [49]).\n(§3) Sesquiterpenes CNER, TNER and FAR, non-volatile liquids, were pipetted, and proper concentration was calculated according to density. All compounds were dissolved in DMSO. The final solvent concentration in the inhibition assays was 1%, which had no effect on the enzyme activity (data not shown). Non-enzymatic interference of sesquiterpenes with some compounds in the reaction mixtures (e.g., fluorescence enhancing or quenching) was considered and excluded. All experiments were performed in three replicates, if not stated otherwise.\n(§4) CNER, TNER and FAR at a fixed concentration of 100 µM were screened for inhibition of cytosolic AKR1A1, AKR1C, CBR1, NQO1, SULT, and GST, and microsomal CYPs and UGT. The degree of inhibition caused by sesquiterpenes was compared with non-inhibited control reactions, which contained solvent without sesquiterpenes."}, "CYP1A2": {"biological_target": "T2, CYP1A2 (Rattus norvegicus, UniProt P04799)", "T2 construct": "Frozen liver (both rat and human) was thawed; from tissue; host or cells: rat liver microsomal fraction", "T2 sequence (P04799 1-513)": "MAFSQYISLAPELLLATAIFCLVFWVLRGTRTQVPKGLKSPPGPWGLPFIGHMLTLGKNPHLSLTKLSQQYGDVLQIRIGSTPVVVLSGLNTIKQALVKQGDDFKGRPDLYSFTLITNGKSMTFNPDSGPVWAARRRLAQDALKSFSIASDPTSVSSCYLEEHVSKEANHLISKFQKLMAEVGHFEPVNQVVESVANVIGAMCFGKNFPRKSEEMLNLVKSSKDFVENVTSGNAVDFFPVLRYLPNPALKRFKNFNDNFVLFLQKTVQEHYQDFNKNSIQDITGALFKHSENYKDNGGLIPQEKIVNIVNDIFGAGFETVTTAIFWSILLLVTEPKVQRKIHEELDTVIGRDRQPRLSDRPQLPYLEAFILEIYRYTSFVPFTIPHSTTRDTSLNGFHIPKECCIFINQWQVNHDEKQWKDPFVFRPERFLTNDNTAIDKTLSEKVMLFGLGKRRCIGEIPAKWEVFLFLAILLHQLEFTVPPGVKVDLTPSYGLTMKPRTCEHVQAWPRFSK", "assay": "CYP1A2 (EROD activity, 7-ethoxyresorufin O-deethylation) in rat liver microsomes", "settings": "for Specific Activity, CYP1A2 (EROD activity): in the presence of 100 µM sesquiterpene, control 22.8 ± 0.1", "procedure": "as §1\n(§5) Enzyme activities of individual CYP forms were measured according to established protocols. The following microsomal CYP activities were tested: CYP2A6, coumarin 7-hydroxylation; CYP2B6, 7-ethoxy-4-(trifluoromethyl)coumarin 7-deethylation, CYP2C9, diclofenac 4′-hydroxylation, CYP2C19 assay, S-mephenytoin 4′-hydroxylation, CYP2D6 on bufuralol 1′-hydroxylation, CYP2E1, chlorzoxazone 6-hydroxylation and CYP3A4, testosterone 6β-hydroxylation, and midazolam 1′-hydroxylation. Activities were measured using the Prominence HPLC system (Shimadzu, Kyoto, Japan), equipped with a LiChroCART 250-4 LiChrospher 100 RP-18 column or Chromolith®HighResolution RP-18 end-capped column (Merck, Darmstadt, Germany) and UV or fluorescence detection, according to the cited literature. Further incubation details are described either in the corresponding references, as well as in the papers from this laboratory e.g., [42, 43, 44]. CYP1A2, 7-ethoxyresorufin O-deethylation, and CYP3A4/2B6 (human), CYP2B1 (rat), benzyloxyresorufin O-debenzylation were measured using the microplate reader Tecan Infinite M200 (Tecan Group; Mannedorf, Switzerland).\nas §3, §4\n(§6) The concentration of sesquiterpenes required for 50% inhibition of enzyme activity, the IC50 value, was determined. Their final concentrations in the reaction mixture were proposed to cover the entire inhibitory range of these compounds (1–100 µM). The IC50 values for each sesquiterpene were determined by plotting sigmoidal dose response curves of specific enzyme activity vs. logarithm of sesquiterpene concentration using GraphPad Prism version 6.07 for Windows (GraphPad Software Inc., La Jolla, CA, USA).\n(§7) The kinetic inactivation study of the CYP1A2 (EROD activity) and CYP2B/3A (BROD activity), both in rat and human, with TNER, was performed to find out the mechanism of enzyme inhibition by this sesquiterpene. Mechanism of EROD and BROD inhibition was tested at the final ethoxyresorufin or benzyloxyresorufin concentrations 0.5–5.0 µM. The concentration of TNER was 5.0 µM.\n(§8) Experimental data were fitted to the Michaelis-Menten equation, basic kinetic parameters were determined using the program GraphPad Prism version 6.07 for Windows. The type of inhibition was estimated using a Lineweaver-Burk (double-reciprocal) plot."}, "AKR1C": {"test_system": "AKR1C", "assay": "AKR1C activity in rat liver subcellular fraction", "settings": "100 µM sesquiterpene, control 14.8 ± 1.8", "procedure": "as §1, §2, §3, §4"}, "SULT [1]": {"test_system": "SULT", "assay": "SULT activity in human liver subcellular fraction", "settings": "100 µM sesquiterpene, control 2.73 ± 0.18", "procedure": "as §1, §2, §3, §4"}, "CYP2B/3A": {"test_system": "CYP2B/3A", "assay": "CYP2B/3A (BROD activity, benzyloxyresorufin O-debenzylation) in human liver microsomes", "settings": "for Specific Activity, CYP2B/3A (BROD activity): in the presence of 100 µM sesquiterpene, control 1.22 ± 0.05; for inhibition at 5 µM: liver microsomes, human, 5 µM inhibitor; for inhibition at 5 µM / IC50: probe benzyloxyresorufin", "procedure": "as §1, §5, §3, §4, §6, §7, §8"}, "SULT [2]": {"test_system": "SULT", "assay": "SULT activity in rat liver subcellular fraction", "settings": "100 µM sesquiterpene, control 8.74 ± 0.52", "procedure": "as §1, §2, §3, §4"}, "UGT": {"test_system": "UGT", "assay": "UGT activity in human liver subcellular fraction", "settings": "100 µM sesquiterpene, control 7.12 ± 0.35", "procedure": "as §1, §2, §3, §4"}}, "data": [{"smiles": "C=CC(C)(O)CC/C=C(/C)CCC=C(C)C", "note": "(stereo not drawn) [CNER, cis-nerolidol]", "values": [{"measurement": "Specific activity, AKR1A", "setting": "AKR1A", "result": "3.86 ± 0.47", "unit": "nmol/mg/min"}, {"measurement": "IC50", "setting": "CYP1A2; rat liver microsomes", "result": 5.7, "unit": "µM"}, {"measurement": "Specific Activity, CYP1A2 (EROD activity)", "setting": "CYP1A2; rat liver microsomes", "result": "2.16 ± 0.04", "unit": "pmol/mg/min"}, {"measurement": "Specific activity, AKR1C", "setting": "AKR1C", "result": "14.6 ± 2.1", "unit": "nmol/mg/min"}, {"measurement": "Specific activity, SULT", "setting": "SULT [1]", "result": "3.12 ± 0.29", "unit": "nmol/mg/min"}, {"measurement": "Specific Activity, CYP2B/3A (BROD activity)", "setting": "CYP2B/3A; human liver microsomes", "result": "0.168 ± 0.007", "unit": "pmol/mg/min"}, {"measurement": "inhibition at 5 µM", "setting": "CYP2B/3A", "result": 71, "unit": "%"}, {"measurement": "IC50", "setting": "CYP2B/3A; human liver microsomes", "result": 1.32, "unit": "µM"}, {"measurement": "Specific activity, SULT", "setting": "SULT [2]", "result": "8.74 ± 0.26", "unit": "nmol/mg/min"}, {"measurement": "Specific activity, UGT", "setting": "UGT", "result": "7.09 ± 0.34", "unit": "nmol/mg/min"}]}, {"smiles": "CC(C)=CCC/C(C)=C/CC/C(C)=C/CO", "note": "[FAR, farnesol]", "values": [{"measurement": "Specific activity, AKR1A", "setting": "AKR1A", "result": "3.48 ± 0.32", "unit": "nmol/mg/min"}, {"measurement": "IC50", "setting": "CYP1A2; rat liver microsomes", "result": 16.1, "unit": "µM"}, {"measurement": "Specific Activity, CYP1A2 (EROD activity)", "setting": "CYP1A2; rat liver microsomes", "result": "1.55 ± 0.02", "unit": "pmol/mg/min"}, {"measurement": "Specific activity, AKR1C", "setting": "AKR1C", "result": "14.9 ± 1.5", "unit": "nmol/mg/min"}, {"measurement": "Specific activity, SULT", "setting": "SULT [1]", "result": "2.72 ± 0.23", "unit": "nmol/mg/min"}, {"measurement": "Specific Activity, CYP2B/3A (BROD activity)", "setting": "CYP2B/3A; human liver microsomes", "result": "0.033 ± 0.004", "unit": "pmol/mg/min"}, {"measurement": "inhibition at 5 µM", "setting": "CYP2B/3A", "result": 85, "unit": "%"}, {"measurement": "IC50", "setting": "CYP2B/3A; human liver microsomes", "result": 1.78, "unit": "µM"}, {"measurement": "Specific activity, SULT", "setting": "SULT [2]", "result": "8.55 ± 0.30", "unit": "nmol/mg/min"}, {"measurement": "Specific activity, UGT", "setting": "UGT", "result": "7.49 ± 1.08", "unit": "nmol/mg/min"}]}, {"smiles": "C=CC(C)(O)CC/C=C(\\C)CCC=C(C)C", "note": "(stereo not drawn) [TNER, trans-nerolidol]", "values": [{"measurement": "Specific activity, AKR1A", "setting": "AKR1A", "result": "3.71 ± 0.56", "unit": "nmol/mg/min"}, {"measurement": "IC50", "setting": "CYP1A2; rat liver microsomes", "result": 4.38, "unit": "µM"}, {"measurement": "Ki", "setting": "CYP1A2; rat liver microsomes, EROD activity", "result": "4.68 ± 0.66", "unit": "µM"}, {"measurement": "K’M", "setting": "CYP1A2; rat liver microsomes, ethoxyresorufin 0.5–5.0 µM in the presence of TNER 5 µM, KM without TNER 1.64 ± 0.45", "result": "1.89 ± 0.49", "unit": "µM"}, {"measurement": "V’MAX", "setting": "CYP1A2; rat liver microsomes, ethoxyresorufin 0.5–5.0 µM in the presence of TNER 5 µM, VMAX without TNER 4.32 ± 0.47", "result": "2.21 ± 0.24", "unit": "nM/min"}, {"measurement": "Specific Activity, CYP1A2 (EROD activity)", "setting": "CYP1A2; rat liver microsomes", "result": "1.53 ± 0.03", "unit": "pmol/mg/min"}, {"measurement": "type of inhibition, CYP1A2 (EROD)", "setting": "CYP1A2; rat microsomes, 5 µM TNER, ethoxyresorufin 0.5–5.0 µM", "result": "non-competitive"}, {"measurement": "Specific activity, AKR1C", "setting": "AKR1C", "result": "14.8 ± 1.6", "unit": "nmol/mg/min"}, {"measurement": "Specific activity, SULT", "setting": "SULT [1]", "result": "3.20 ± 0.26", "unit": "nmol/mg/min"}, {"measurement": "K’M", "setting": "CYP2B/3A; human liver microsomes, benzyloxyresorufin 0.5–5.0 µM in the presence of TNER 5 µM, KM without TNER 0.93 ± 0.22", "result": "0.94 ± 0.39", "unit": "µM"}, {"measurement": "V’MAX", "setting": "CYP2B/3A; human liver microsomes, benzyloxyresorufin 0.5–5.0 µM in the presence of TNER 5 µM, VMAX without TNER 2.27 ± 0.17", "result": "0.74 ± 0.10", "unit": "nM/min"}, {"measurement": "Specific Activity, CYP2B/3A (BROD activity)", "setting": "CYP2B/3A; human liver microsomes", "result": "0.188 ± 0.005", "unit": "pmol/mg/min"}, {"measurement": "type of inhibition, BROD activity", "setting": "CYP2B/3A; human microsomes, 5 µM TNER, benzyloxyresorufin 0.5–5.0 µM", "result": "non-competitive"}, {"measurement": "inhibition at 5 µM", "setting": "CYP2B/3A", "result": 68, "unit": "%"}, {"measurement": "IC50", "setting": "CYP2B/3A; human liver microsomes", "result": 2.4, "unit": "µM"}, {"measurement": "Specific activity, SULT", "setting": "SULT [2]", "result": "8.48 ± 0.28", "unit": "nmol/mg/min"}, {"measurement": "Specific activity, UGT", "setting": "UGT", "result": "7.08 ± 0.39", "unit": "nmol/mg/min"}]}]}
